Data: PMC4574351, “Tubulin cofactors and Arl2 are cage-like chaperones that regulate the soluble αβ-tubulin pool for microtubule dynamics” (eLife, 2015)
Like-named read-outs stand apart in the source and are kept apart here.

Legend:
Test in all cases: malachite green phosphate release, Michaelis-Menten fit
Assay type in all cases: biochemical
[1] = target: T1, TBC-DEG:αβ-tubulin:TBCC ternary complex (Saccharomyces cerevisiae, UniProt P39110); details: 1 μM each TBC-DEG, buffer and temperature same, read-out: Km (GTP)
T1 construct: gene CIN4; recombinant yeast TBC-DEG and full-length TBCC with equimolar double-cycled porcine brain tubulin dimer; tubulin may contribute to GTP turnover; with Protein CIN1; Protein PAC2; Tubulin-folding cofactor C; Tubulin alpha chain (Sus scrofa brain, isotype mixture); Tubulin beta chain (Sus scrofa brain, isotype mixture)
Excerpt: (§1) malachite green phosphate release, Michaelis-Menten fit on TBC-DEG:αβ-tubulin:TBCC ternary complex

[2] = target: T2, TBC-DEG:αβ-tubulin:TBCC ternary complex (Saccharomyces cerevisiae, UniProt P39110, Q73L); details: 1 μM each TBC-DEG-Q73L, buffer and temperature same, text prints 387 μM, residual turnover ascribed to tubulin, read-out: Km (GTP)
T2 construct: gene CIN4; recombinant yeast TBC-DEG and full-length TBCC with equimolar double-cycled porcine brain tubulin dimer; tubulin may contribute to GTP turnover; with Protein CIN1; Protein PAC2; Tubulin-folding cofactor C; Tubulin alpha chain (Sus scrofa brain, isotype mixture); Tubulin beta chain (Sus scrofa brain, isotype mixture)
Excerpt: as §1

[3] = target: T3, TBC-DEG (TBCD-TBCE-Arl2) (Saccharomyces cerevisiae, UniProt P39110); details: 1 μM TBC-DEG alone; 0-800 μM GTP; 50 mM HEPES, 100 mM KCl; 30 °C, 90 min
T3 construct: gene CIN4; full-length subunits co-expressed in E. coli (polycistronic), 6xHis N-terminal tag; 1:1:1 heterotrimer, ~205 kDa; with Protein CIN1; Protein PAC2
T3 sequence (P39110 1-191): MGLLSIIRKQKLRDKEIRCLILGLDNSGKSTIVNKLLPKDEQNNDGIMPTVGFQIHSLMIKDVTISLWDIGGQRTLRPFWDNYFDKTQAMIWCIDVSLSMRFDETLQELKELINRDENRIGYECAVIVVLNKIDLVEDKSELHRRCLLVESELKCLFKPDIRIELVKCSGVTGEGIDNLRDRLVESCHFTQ
T3 sequence (P40987 1-1014 partner): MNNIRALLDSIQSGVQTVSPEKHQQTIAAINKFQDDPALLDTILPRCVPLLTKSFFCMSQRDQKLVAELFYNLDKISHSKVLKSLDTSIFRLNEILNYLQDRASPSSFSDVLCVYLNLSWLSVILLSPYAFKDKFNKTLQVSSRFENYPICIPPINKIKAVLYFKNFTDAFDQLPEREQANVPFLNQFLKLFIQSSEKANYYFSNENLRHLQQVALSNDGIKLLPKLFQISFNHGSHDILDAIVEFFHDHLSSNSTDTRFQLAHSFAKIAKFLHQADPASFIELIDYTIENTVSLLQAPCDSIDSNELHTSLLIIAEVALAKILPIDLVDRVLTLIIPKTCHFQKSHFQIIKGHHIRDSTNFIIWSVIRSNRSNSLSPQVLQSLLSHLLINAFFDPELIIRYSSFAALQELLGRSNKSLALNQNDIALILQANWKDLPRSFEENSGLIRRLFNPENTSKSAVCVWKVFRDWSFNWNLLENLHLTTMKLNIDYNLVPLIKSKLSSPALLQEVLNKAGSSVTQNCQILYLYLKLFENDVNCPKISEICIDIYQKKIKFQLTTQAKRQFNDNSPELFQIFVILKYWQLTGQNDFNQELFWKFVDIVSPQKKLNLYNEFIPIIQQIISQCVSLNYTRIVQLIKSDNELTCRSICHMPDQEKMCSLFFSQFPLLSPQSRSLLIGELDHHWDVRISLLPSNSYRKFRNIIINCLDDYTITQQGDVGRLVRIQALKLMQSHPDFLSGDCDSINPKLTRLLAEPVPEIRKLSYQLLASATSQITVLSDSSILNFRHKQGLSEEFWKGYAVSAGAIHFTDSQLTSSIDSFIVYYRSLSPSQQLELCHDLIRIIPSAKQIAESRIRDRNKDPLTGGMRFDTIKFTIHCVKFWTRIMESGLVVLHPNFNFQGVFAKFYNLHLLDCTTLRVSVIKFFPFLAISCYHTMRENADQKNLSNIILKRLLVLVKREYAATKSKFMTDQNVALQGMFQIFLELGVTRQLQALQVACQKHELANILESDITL
T3 sequence (P39937 1-518 partner): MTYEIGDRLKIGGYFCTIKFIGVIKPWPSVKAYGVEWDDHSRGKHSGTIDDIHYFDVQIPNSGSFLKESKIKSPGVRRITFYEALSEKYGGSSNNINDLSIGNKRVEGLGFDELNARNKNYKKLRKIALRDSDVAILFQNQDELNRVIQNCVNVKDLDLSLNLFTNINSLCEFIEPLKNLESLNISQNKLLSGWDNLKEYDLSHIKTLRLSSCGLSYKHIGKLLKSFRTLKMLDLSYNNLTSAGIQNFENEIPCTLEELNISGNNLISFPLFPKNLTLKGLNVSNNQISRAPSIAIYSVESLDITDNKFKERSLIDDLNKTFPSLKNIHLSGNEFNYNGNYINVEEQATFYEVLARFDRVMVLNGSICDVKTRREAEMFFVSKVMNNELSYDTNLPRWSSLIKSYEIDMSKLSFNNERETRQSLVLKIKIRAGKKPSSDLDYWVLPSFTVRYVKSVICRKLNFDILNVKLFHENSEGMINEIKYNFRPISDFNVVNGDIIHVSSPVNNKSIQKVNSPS
Excerpt: malachite green phosphate release, Michaelis-Menten fit on TBC-DEG (TBCD-TBCE-Arl2)

[4] = target: T4, TBC-DEG:αβ-tubulin (Saccharomyces cerevisiae, UniProt P39110); details: 1 μM TBC-DEG, 1 μM αβ-tubulin; buffer and temperature same; GTPase site may be Arl2 or tubulin; read-out: Km (GTP)
T4 construct: gene CIN4; recombinant yeast TBC-DEG with equimolar double-cycled porcine brain tubulin dimer; tubulin may contribute to GTP turnover; with Protein CIN1; Protein PAC2; Tubulin alpha chain (Sus scrofa brain, isotype mixture); Tubulin beta chain (Sus scrofa brain, isotype mixture)
Excerpt: malachite green phosphate release, Michaelis-Menten fit on TBC-DEG:αβ-tubulin

[5] = target: T5, TBC-DEG:αβ-tubulin:TBCC-Cterm (TBCC-C) (Saccharomyces cerevisiae, UniProt P39110); details: 1 μM each TBC-DEG, buffer and temperature same, read-out: Km (GTP)
T5 construct: gene CIN4; as ternary complex but TBCC beta-helix domain only (residues 100-267, spectrin domain removed); with Protein CIN1; Protein PAC2; Tubulin-folding cofactor C; Tubulin alpha chain (Sus scrofa brain, isotype mixture); Tubulin beta chain (Sus scrofa brain, isotype mixture)
Excerpt: malachite green phosphate release, Michaelis-Menten fit on TBC-DEG:αβ-tubulin:TBCC-Cterm (TBCC-C)

[6] = target: T6, TBC-DEG:TBCC (Saccharomyces cerevisiae, UniProt P39110); details: 1 μM TBC-DEG, 1 μM TBCC; buffer and temperature same; read-out: Km (GTP)
T6 construct: gene CIN4; TBC-DEG mixed with equimolar full-length TBCC (GAP), all recombinant from E. coli; with Protein CIN1; Protein PAC2; Tubulin-folding cofactor C
Excerpt: malachite green phosphate release, Michaelis-Menten fit on TBC-DEG:TBCC

T5 sequence (P46670 100-267 partner, one chain of several): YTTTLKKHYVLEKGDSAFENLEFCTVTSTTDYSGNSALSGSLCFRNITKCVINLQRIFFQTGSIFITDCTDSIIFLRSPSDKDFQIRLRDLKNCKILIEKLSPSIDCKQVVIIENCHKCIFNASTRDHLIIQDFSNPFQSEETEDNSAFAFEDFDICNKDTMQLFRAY
T5 sequence (P02550 whole entry partner, one chain of several, the tested form may be a part): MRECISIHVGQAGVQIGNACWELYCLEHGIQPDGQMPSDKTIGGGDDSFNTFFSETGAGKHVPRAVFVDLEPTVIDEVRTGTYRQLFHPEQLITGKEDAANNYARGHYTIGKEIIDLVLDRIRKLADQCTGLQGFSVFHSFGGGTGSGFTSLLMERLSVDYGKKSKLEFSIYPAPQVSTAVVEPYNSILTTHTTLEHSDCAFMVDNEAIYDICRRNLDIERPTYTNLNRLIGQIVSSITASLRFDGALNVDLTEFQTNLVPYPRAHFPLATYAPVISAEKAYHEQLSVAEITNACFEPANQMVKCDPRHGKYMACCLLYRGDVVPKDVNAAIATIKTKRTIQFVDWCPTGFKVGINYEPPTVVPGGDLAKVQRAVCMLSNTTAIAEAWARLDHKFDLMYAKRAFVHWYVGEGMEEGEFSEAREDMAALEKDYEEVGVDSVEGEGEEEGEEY
T5 sequence (P02554 whole entry partner, one chain of several, the tested form may be a part): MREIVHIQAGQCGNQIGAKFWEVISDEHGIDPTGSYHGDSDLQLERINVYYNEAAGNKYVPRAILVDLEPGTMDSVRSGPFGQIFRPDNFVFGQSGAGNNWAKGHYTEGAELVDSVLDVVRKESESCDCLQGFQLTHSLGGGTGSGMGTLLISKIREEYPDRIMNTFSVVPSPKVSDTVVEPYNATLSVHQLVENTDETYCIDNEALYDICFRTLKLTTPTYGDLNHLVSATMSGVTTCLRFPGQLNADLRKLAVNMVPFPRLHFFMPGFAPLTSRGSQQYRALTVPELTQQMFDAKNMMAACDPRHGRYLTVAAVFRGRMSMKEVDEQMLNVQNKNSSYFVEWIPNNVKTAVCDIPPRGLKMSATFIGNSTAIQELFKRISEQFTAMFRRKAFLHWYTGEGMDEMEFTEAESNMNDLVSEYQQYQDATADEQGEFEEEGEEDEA
T4 sequence (P02550 whole entry partner, one chain of several): as the sequence (P02550 whole entry partner, one chain of several, the tested form may be a part) above
T4 sequence (P02554 whole entry partner, one chain of several): as the sequence (P02554 whole entry partner, one chain of several, the tested form may be a part) above
T6 sequence (P46670 whole entry partner, one chain of several): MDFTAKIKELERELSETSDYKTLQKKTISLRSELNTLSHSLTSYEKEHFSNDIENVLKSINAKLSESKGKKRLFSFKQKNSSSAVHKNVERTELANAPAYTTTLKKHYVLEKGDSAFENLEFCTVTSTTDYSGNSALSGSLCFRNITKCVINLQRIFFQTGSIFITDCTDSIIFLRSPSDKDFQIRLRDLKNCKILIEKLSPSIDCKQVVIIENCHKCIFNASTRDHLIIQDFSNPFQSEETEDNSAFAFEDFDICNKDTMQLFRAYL
T2 sequence (P39110 whole entry Q73L, one chain of several): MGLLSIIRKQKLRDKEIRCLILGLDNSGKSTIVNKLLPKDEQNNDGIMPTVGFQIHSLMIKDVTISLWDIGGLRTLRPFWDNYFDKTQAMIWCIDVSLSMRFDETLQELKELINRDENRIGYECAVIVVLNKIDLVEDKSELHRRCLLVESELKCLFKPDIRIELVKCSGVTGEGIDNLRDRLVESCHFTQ
T2 sequence (P46670 whole entry partner, one chain of several): as the sequence (P46670 whole entry partner, one chain of several) above
T2 sequence (P02550 whole entry partner, one chain of several): as the sequence (P02550 whole entry partner, one chain of several, the tested form may be a part) above
T2 sequence (P02554 whole entry partner, one chain of several): as the sequence (P02554 whole entry partner, one chain of several, the tested form may be a part) above

Km ([1]; TBCC-R186A, arginine finger mutant): 40 ± 10 µM
Km ([1]; TBCC-Δ233-245, αβ-tubulin): 35 ± 8 µM
Km ([1]; Arl2 with minor tubulin contribution): 99 ± 10 µM
Km [2]: 371 ± 20 µM
Km [3]: 400 ± 30 µM
Km [4]: 69 ± 12 µM
Km [5]: 56 ± 7 µM
Km [6]: 94 ± 10 µM
SMILES: Nc1nc2c(ncn2[C@@H]2O[C@H](COP(=O)(O)OP(=O)(O)OP(=O)(O)O)[C@@H](O)[C@H]2O)c(=O)[nH]1 [GTP]
